Here are results for one substance from patent US20210322469A1, “ZINC AND COPPER FOR THE PROPHYLAXIS AND TREATMENT OF COVID-19” (Regents of the University of Minnesota, priority 2020, published 2021).

Like-named read-outs stand apart in the source and are kept apart here.

One assay has as its system SARS-CoV-2. The format is in vivo. To be noted: patients receiving zinc prophylactically for AMD or for treatment of AMD.
Assay [1] concerns the target angiotensin converting enzyme 2 (ACE2) (Homo sapiens, UniProt Q9BYF1). The conditions noted are these: Speth et al. 2014, cited from earlier work.

angiotensin converting enzyme 2 (ACE2), sequence (Q9BYF1 18-805): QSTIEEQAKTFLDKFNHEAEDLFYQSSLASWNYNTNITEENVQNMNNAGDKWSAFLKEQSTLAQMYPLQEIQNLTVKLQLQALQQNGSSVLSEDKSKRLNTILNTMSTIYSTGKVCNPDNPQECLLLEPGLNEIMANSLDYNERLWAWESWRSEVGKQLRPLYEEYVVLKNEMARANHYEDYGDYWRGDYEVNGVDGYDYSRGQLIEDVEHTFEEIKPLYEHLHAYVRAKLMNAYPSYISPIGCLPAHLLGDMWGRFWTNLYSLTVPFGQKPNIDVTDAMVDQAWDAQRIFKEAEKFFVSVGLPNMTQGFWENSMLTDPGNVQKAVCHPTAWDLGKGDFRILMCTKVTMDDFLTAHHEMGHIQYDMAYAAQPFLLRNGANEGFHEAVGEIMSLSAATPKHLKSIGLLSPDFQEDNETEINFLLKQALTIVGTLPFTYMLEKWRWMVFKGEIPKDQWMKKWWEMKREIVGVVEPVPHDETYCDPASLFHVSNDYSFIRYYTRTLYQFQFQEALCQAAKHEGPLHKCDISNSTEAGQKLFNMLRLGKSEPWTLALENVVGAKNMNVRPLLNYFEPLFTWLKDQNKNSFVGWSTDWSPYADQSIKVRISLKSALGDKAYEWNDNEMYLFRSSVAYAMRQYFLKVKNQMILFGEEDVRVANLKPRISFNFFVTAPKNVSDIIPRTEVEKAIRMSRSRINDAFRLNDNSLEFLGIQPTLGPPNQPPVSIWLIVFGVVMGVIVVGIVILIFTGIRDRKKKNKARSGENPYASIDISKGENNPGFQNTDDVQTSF

In the case of zinc, the COVID-19-related deaths entry in the assay with SARS-CoV-2 is recorded as “no COVID-19-related deaths”. In addition, the figures for the “inhibition of ACE2 function” value in assay [1] and in assay [1] (listed as Zinc) were “inhibitor of ACE2 function” and “can inhibit the function of ACE2”, respectively.
